Data published in patent US12053528B2, “Topical formulations comprising polyoxyl lipid or fatty acid and polyalkoxylated alcohol, and uses thereof” (Sun Pharmaceutical Industries Limited, priority 2015, dated 2024).

Assay: Ocular tissue distribution of RX-10045 nanomicellar formulations (LC-MS/MS)
Type: in vivo, New Zealand White Rabbits
Settings: after topical RX-10045 formulations 4x/day for 5 days
Procedure: A study is conducted in rabbits to test the tolerance and ocular tissue distribution of two nanomicellar formulations of active compound against matching placebos (Table 7a and 7b) and balanced saline solution (BSS). Healthy New Zealand female white rabbits (2-3 kg) are used for this study. One drop (approximately 35 μL) of study drug is applied o.d. 4×/day at two hour intervals for 5 days. One drop of BSS is applied to the contralateral eye.
Selected ocular fluids/tissues (aqueous humor, vitreous humor, conjunctiva, cornea, iris-ciliary body, lens, retina/choroid, and sclera) collected from two rabbits each in the active agent (0.15% in HCO-60, 0.1 in HCO-40) treatment groups, and from one rabbit in each of the matching placebo groups, are assayed for active compound by liquid chromatography-tandem mass spectrometry (LC-MS/MS). Warfarin-d5 and 5-HDA are used as internal standards for the analysis of RX-10045 and its active metabolite, RX-10008, respectively, in aqueous humor and vitreous humor. For the other ocular tissues (solid tissues), warfarin-d5 and phenyl acetic acid-d5 (PAA-d5) are used as the internal standards for compound 1001 and RX-10008, respectively. The analytical range for the solid tissues is 0.125-100 ng. The results of the solid tissue analyses are converted to ng/g by correcting for the amount of tissue analyzed.

Concentrations of the compound 1001 ester prodrug in the sclera and conjunctiva: sporadic, relatively low
Hydrolysis to active metabolite RX-10008 in ocular tissues: rapidly hydrolyzed
SMILES: C#CC[C@@H](O)/C=C/C=C/C#C[C@@H](O)CCCC(=O)OC(C)C [compound 1001]
Compound 1001 in the majority of ocular tissues: either not detected or is below the quantitation limit of the assay
